According to patent US20220339116A1, “LIPID NANOPARTICLES AS ORAL VEHICLES OF IMMUNOTHERAPY” (The Johns Hopkins University, priority 2019, published 2022):

Key:
[1] = cited from earlier work
[2] = tested on: bone marrow derived dendritic cells (DC); test: DC maturation in response to LPS with soluble Tofa (flow cytometry, ELISA); type: cell-based, mouse
Protocol: FIGS. 2A-2B. Jak inhibition impacts APC maturation. 2A, Representative graphs of surface expression of maturation markers on DC left untreated or exposed overnight to LPS+/−Tofa. 2B, Supernatants from DC cultures were tested for accumulation of the indicated cytokines by ELISA. n=3.
The latter two have been implicated in T1D development and inhibition of their accumulation would be a valuable effect.

NOD mice = test: Diabetes onset in NOD mice after oral gavage; type: in vivo, mouse; conditions: amount identical to that used in Tofa-NLC; ongoing group
From the text: FIG. 13. Oral administration of Tofa-NLC delays diabetes onset. We tested the effect of Tofa-NLC administration via oral gavage to two treatment groups: 1) 3 week-old NOD mice (corresponding to Pre-stage 1 in human patients) and 2) 10 week-old NOD mice (corresponding to advanced Stage 1 in human patients).
All these characteristics indicate that LNp would be a most valuable delivery system for the tissue selective actuation of a combination immunotherapy. We then began to define the effects of a transient administration of Tofa-NLC on diabetes development in NOD mice. […] We then tested the effect of Tofa-NLC administration via oral gavage to two treatment groups: 1) 3 week-old NOD mice (corresponding to Pre-stage 1 in human patients) and 2) 10 week-old NOD mice (corresponding to advanced Stage 1 in human patients). […] In particular, oral administration to 3-week-old NOD mice prevented onset of disease in 70% of the animals for more than 40 weeks.

Treg cells = test: T cell CFSE-Proliferation-Assay of Treg suppressive activity; type: cell-based; conditions: Treg at 2:1 or 4:1 T cell to Treg ratio; Tofa at 0.5 or 1 μM
Protocol: FIG. 3. […] Results of CFSE-Proliferation-Assay conducted with the addition of Treg cells (at either 2:1 or 4:1 T cell to Treg ratio) and Tofa (at 0.5 or 1 μM). Values are normalized to the extent of proliferation measured with no Treg.

Substance | Solubility in Dimethyl Sulfoxide [1] | release of inflammatory cytokines IL-6, IL-1, TNF-α ([2]; DC culture supernatants, ELISA) | up-regulation of CD80 and CD86 costimulatory molecules ([2]; DC exposed to LPS +/- Tofa) | up-regulation of MHC-II molecules ([2]; DC exposed to LPS +/- Tofa) | therapeutic effect on diabetes development (NOD mice) | suppressive activity of Treg (Treg cells)
Filgotinib | 85 mg/mL | – | – | – | – | –
Tofacitinib | – | reduction in release of the prototypical inflammatory cytokines | significant inhibition of the up-regulation of CD80 and CD86 costimulatory molecules | did not prevent the up-regulation of MHC-II molecules | inferior (if not absent) therapeutic effect | preservation of regulatory activity
